pEC50, pIC50: −log10 of the molar value.

The first test has as its target T1, biotinylated wild-type menin and MLL-AF9 fusion protein (menin/MLL binding) (Homo sapiens, UniProt O00255).
T1 construct: made in house; host or cells: menin: E. coli; MLL-AF9-FLAG: HEK293 cells, used as cleared lysate
T1 sequence (O00255 1-610): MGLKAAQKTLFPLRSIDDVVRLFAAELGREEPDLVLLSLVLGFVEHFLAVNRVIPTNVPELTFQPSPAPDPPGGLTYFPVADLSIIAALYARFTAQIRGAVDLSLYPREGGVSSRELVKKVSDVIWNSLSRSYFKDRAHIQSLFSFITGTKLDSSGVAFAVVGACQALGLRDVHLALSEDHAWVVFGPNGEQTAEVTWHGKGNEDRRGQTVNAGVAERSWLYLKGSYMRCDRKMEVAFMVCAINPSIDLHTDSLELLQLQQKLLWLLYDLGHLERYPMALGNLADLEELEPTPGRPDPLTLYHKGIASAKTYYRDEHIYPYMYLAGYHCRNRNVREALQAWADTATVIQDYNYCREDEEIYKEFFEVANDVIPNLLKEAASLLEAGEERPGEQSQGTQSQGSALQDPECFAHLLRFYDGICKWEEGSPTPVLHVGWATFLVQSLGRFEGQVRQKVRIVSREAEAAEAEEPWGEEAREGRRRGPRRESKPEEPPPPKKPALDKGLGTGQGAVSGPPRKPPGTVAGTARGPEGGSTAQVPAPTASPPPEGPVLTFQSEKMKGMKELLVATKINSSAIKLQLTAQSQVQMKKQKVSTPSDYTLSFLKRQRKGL
In words: Assay 1: menin/MLL binding AlphaLISA assay, wild-type menin. The following applies: Table 30; column head does not say wild-type or mutated menin. How it is done:
Potencies of inhibitor compounds against menin/MLL binding were assessed by AlphaLISA assay using biotinylated (1) wild-type menin or (2) mutated menin (described in Huang et al, 2012, Nature, 482, 542-546) and MLL-AF9 fusion protein bearing a FLAG epitope at its C-terminus. Menin proteins were expressed in E. coli and covalently modified with biotin using EZ-Link™ Sulfo-NHS-Biotin (ThermoFisher Cat.No. 21217) according to manufacturer's protocol. MLL1-1,396 fused to AF91-92 and the C-terminal FLAG peptide was expressed in HEK293 cells and used as a lysate cleared at 21,000×g for 10 min.
Compounds (2 μL of solutions in DMSO) were dispensed in white 96-well half-area plates (Corning Cat.No. 3693) and incubated for 30 min at RT with 5 nM biotinylated menin and appropriate amount of MLL-AF9-FLAG lysate in 40 μL of 50 mM Tris-HCl buffer pH 7.4 containing 5% (v/v) DMSO, 50 mM NaCl, 0.01% (w/v) bovine serum albumin (BSA) and 1 mM DTT. To this incubation mixture, 40 μL of AlphaLISA anti-FLAG acceptor (PerkinElmer Cat.No. AL112C) and streptavidin donor (PerkinElmer Cat.No. 6760002) beads (10 μg/mL each) was added and incubation continued at RT for 60 min. Alpha (amplified luminescent proximity homogeneous assay) signal was measured on an Envision multi-label plate reader at the end of the incubation. All steps were conducted under dim fluorescent light.
These percent inhibition values were regressed against compound concentrations in the assay using four parameter logit non-linear curve fitting (XLFit, IDBS). The IC50 values were derived from the curve fitting as inflection points on the dose-response curves and are set out in Table 30 below.
In general terms: In Alpha technology, singlet oxygen from a donor bead excites a nearby acceptor bead.
“2-((4-(7-(((1r,4r)-4- (3,3- dimethylureido)cyclo- hexyl) methyl)- 2,7-diazaspiro [3.5]nonan-2- yl)pyrimidin-5- yl)oxy)-5-fluoro- N,N-diisopropyl benzamide [Example 97]” gave a negative-log IC50 (pIC50) of more than 7.00.
Compound “5-((7-(5-(4-fluoro-2-(3-fluoro-3-methylbutyl)phenoxy) pyrimidin-4-yl)-2,7-diazaspiro[4.4]nonan-2-yl)methyl)-1H-benzo[d]imidazol-2(3H)-one [Example 35]” showed a negative logarithm of the IC50 (pIC50) of more than 7.00.
`CC(C)N(C(=O)c1cc(F)ccc1Oc1cncnc1N1CCC2(CCN(Cc3ccc4[nH]c(=O)[nH]c4c3)C2)C1)C(C)C` (racemic) [Example 1, 5-fluoro-N,N-diisopropyl-2-((4-(7-((2-oxo-2,3-dihydro-1H-benzo[d]imidazol-5-yl)methyl)-2,7-diazaspiro[4.4]nonan-2-yl)pyrimidin-5-yl)oxy)benzamide] gave a pIC50 of more than 7.00.
`CNC(=O)c1csc(N2CCC3(CCN(c4ncncc4Oc4ccc(F)cc4-c4ccc(C#N)cc4C4CC4)C3)C2)n1` (stereo not shown) [Example 57, 2-(7-(5-((4′-cyano-2′-cyclopropyl-5-fluoro-[1,1′-biphenyl]-2-yl)oxy)pyrimidin-4-yl)-2,7-diazaspiro[4.4]nonan-2-yl)-N-methylthiazole-4-carboxamide] showed a pIC50 of more than 7.00.
The compound `CN(C)C(=O)c1csc(N2CCC3(CCN(c4ncncc4Oc4ccc(F)cc4-c4ccc(C#N)cc4C4CC4)C3)C2)n1` (stereo not shown) [Example 58, 2-(7-(5-((4′-cyano-2′-cyclopropyl-5-fluoro-[1,1′-biphenyl]-2-yl)oxy)pyrimidin-4-yl)-2,7-diazaspiro[4.4]nonan-2-yl)-N,N-dimethylthiazole-4-carboxamide] gave a pIC50 of 6.00 to 7.00.
`CC(C)c1ncncc1-c1cc(F)ccc1Oc1cncnc1N1CCC2(CCC(Cc3ccccc3)C2)C1` (stereo not shown) [Example 59, 7-benzyl-2-(5-(4-fluoro-2-(4-isopropylpyrimidin-5-yl)phenoxy)pyrimidin-4-yl)-2-azaspiro[4.4]nonane] gave a negative-log IC50 (pIC50) not above 6.00.
With `CC(C)N(C)C(=O)c1cc(F)ccc1Oc1cncnc1N1CCC2(CCN(Cc3cccc(N4CCOC4=O)c3)C2)C1` (stereo not shown) [Example 61, 5-fluoro-N-isopropyl-N-methyl-2-((4-(7-(3-(2-oxooxazolidin-3-yl)benzyl)-2,7-diazaspiro[4.4]nonan-2-yl)pyrimidin-5-yl)oxy)benzamide], the pIC50 was 6.00 to 7.00.
Still for that read-out and setting: next, `CCc1ccccc1-c1cc(F)ccc1Nc1cncnc1N1CCC2(CC1)CN(CC(C)(C)O)C2` [Example 71, 1-(7-(5-((2′-ethyl-5-fluoro-[1,1′-biphenyl]-2-yl)amino)pyrimidin-4-yl)-2,7-diazaspiro[3.5]nonan-2-yl)-2-methylpropan-2-ol]: more than 7.00; `CC(C)S(=O)(=O)Nc1cc(F)ccc1Oc1cncnc1N1CC2(CCN(C[C@H]3CC[C@H](NS(C)(=O)=O)CC3)CC2)C1` [Example 74, N-(5-fluoro-2-((4-(7-(((1r,4r)-4-(methylsulfonamido)cyclohexyl)methyl)-2,7-diazaspiro[3.5]nonan-2-yl)pyrimidin-5-yl)oxy)phenyl)propane-2-sulfonamide]: more than 7.00; `CCc1ccccc1-c1cc(F)ccc1Cc1cnccc1N1CC2(CN(CC3CCOCC3)C2)C1` [Example 78, 2-(3-((2′-ethyl-5-fluoro-[1,1′-biphenyl]-2-yl)methyl)pyridin-4-yl)-6-((tetrahydro-2H-pyran-4-yl)methyl)-2,6-diazaspiro[3.3]heptane]: 6.00 to 7.00.
Same read-out and setting: in the case of `CC(C)c1ncncc1-c1cc(F)ccc1Oc1cncnc1N1CCC2(CC(N3CCc4cc(F)ccc4C3)CO2)C1` (stereo not shown) [Example 157, 7-(5-(4-fluoro-2-(4-isopropylpyrimidin-5-yl)phenoxy)pyrimidin-4-yl)-3-(6-fluoro-3,4-dihydroisoquinolin-2(1H)-yl)-1-oxa-7-azaspiro[4.4]nonane] it was more than 7.00; in that of `CC(C)c1ccccc1-c1cc(F)ccc1Nc1cncnc1N1CCC2(CCN(Cc3ccc4[nH]c(=O)[nH]c4c3)C2)C1` (stereo not shown) [Example 243, 5-((7-(5-((5-fluoro-2′-isopropyl-[1,1′-biphenyl]-2-yl)amino)pyrimidin-4-yl)-2,7-diazaspiro [4.4]nonan-2-yl)methyl)-1,3-dihydro-2H-benzo[d]imidazol-2-one], more than 7.00.
On to `CC(C)c1ncncc1-c1cc(F)ccc1Nc1cncnc1N1CC2(CN(CC3CCOCC3)C2)C1` [Example 244, N-(4-fluoro-2-(4-isopropylpyrimidin-5-yl)phenyl)-4-(6-((tetrahydro-2H-pyran-4-yl)methyl)-2,6-diazaspiro[3.3]heptan-2-yl) pyrimidin-5-amine], for which the negative logarithm of the IC50 (pIC50) is more than 7.00.
Regarding `CC(C)CN1CC2(CCN(c3ncncc3Nc3ccc(F)cc3-c3ccccc3OC(C)C)CC2)C1` [Example 245, N-(5-fluoro-2′-isopropoxy-[1,1′-biphenyl]-2-yl)-4-(2-isobutyl-2,7-diazaspiro[3.5]nonan-7-yl) pyrimidin-5-amine], the negative logarithm of the IC50 (pIC50) is more than 7.00.
On the same count and under the same terms, in the case of `CC(C)CN1CC2(CCN(c3ncncc3Nc3ccc(F)cc3-c3ccccc3C(C)C)CC2)C1` [Example 246, N-(5-fluoro-2′-isopropyl-[1,1′-biphenyl]-2-yl)-4-(2-isobutyl-2,7-diazaspiro[3.5]nonan-7-yl) pyrimidin-5-amine] it was more than 7.00.
On to `CCc1ccccc1-c1cc(F)ccc1Nc1cncnc1N1CCC2(CC1)CN(CC(C)C)C2` [Example 247, N-(2′-ethyl-S-fluoro-[1,1′-biphenyl]-2-yl)-4-(2-isobutyl-2,7-diazaspiro[3.5]nonan-7-yl) pyrimidin-5-amine], for which the pIC50 is more than 7.00.

In the next test the test system is human acute monocytic leukemia cell line MV-4-11. Description: Assay 2: cell proliferation assay (ATP quantitation, CellTiter-Glo), MV-4-11. The following applies: Homo sapiens, MV4-11, 72 h, MV-4-11 cells. Type of test: cell-based. How it is done: Potencies of inhibitor compounds against cell proliferation was assessed against the human acute monocytic leukemia cell line MV-4-11 (ATCC® CRL-9591™) based on ATP quantitation. MV-4-11 cells or toxicity control HL-60 cells (ATCC® CCL-240™) were incubated in 96-well tissue culture plates (1.67×10^4 cells in 200 μL culture media containing 10% FBS per well) with or without test compound for 72 h at 37° C., 5% CO2. After incubation, each well was mixed by pipetting and 95 μL from each well was transferred to a well in 96-well black OptiPlate® plates (PerkinElmer). An equal volume of CellTiter-Glo® Luminescent Cell Viability Assay reagent (Promega) was added to each well, followed by mixing for 5 min on an orbital plate shaker. Luminescence was measured on a Wallac EnVision 2104 Multilabel Reader (PerkinElmer) to quantitate ATP.
For orientation: In ATP-based viability assays light output follows the ATP content of the culture.
`CC(C)N(C(=O)c1cc(F)ccc1Oc1cncnc1N1CCC2(CCN(Cc3ccc4[nH]c(=O)[nH]c4c3)C2)C1)C(C)C` (racemic) [Example 1, 5-fluoro-N,N-diisopropyl-2-((4-(7-((2-oxo-2,3-dihydro-1H-benzo[d]imidazol-5-yl)methyl)-2,7-diazaspiro[4.4]nonan-2-yl)pyrimidin-5-yl)oxy)benzamide] had a pEC50 of more than 7.00.

Staying with this test, now noted: MV-4-11 cells, 72 h.
Compound “2-((4-(7-(((1r,4r)-4- (3,3- dimethylureido)cyclo- hexyl) methyl)- 2,7-diazaspiro [3.5]nonan-2- yl)pyrimidin-5- yl)oxy)-5-fluoro- N,N-diisopropyl benzamide [Example 97]” had a negative-log EC50 (pEC50) of 6.00 to 7.00.
Still for that read-out and setting: next, “5-((7-(5-(4-fluoro-2-(3-fluoro-3-methylbutyl)phenoxy) pyrimidin-4-yl)-2,7-diazaspiro[4.4]nonan-2-yl)methyl)-1H-benzo[d]imidazol-2(3H)-one [Example 35]”: 6.00 to 7.00; `CC(O)c1ccccc1-c1cc(F)ccc1Oc1cncnc1N1CCC2(CCN(Cc3ccc4[nH]c(=O)[nH]c4c3)C2)C1` (single isomer, unassigned) [Example 60B, 5-((7-(5-((5-fluoro-2′-(1-hydroxyethyl)-[1,1′-biphenyl]-2-yl)oxy)pyrimidin-4-yl)-2,7-diazaspiro[4.4]nonan-2-yl)methyl)-1H-benzo[d]imidazol-2(3H)-one]: more than 7.00; `CC(O)c1ccccc1-c1cc(F)ccc1Oc1cncnc1N1CCC2(CCN(Cc3ccc4[nH]c(=O)[nH]c4c3)C2)C1` (single isomer, unassigned) [Example 60C, 5-((7-(5-((5-fluoro-2′-(1-hydroxyethyl)-[1,1′-biphenyl]-2-yl)oxy)pyrimidin-4-yl)-2,7-diazaspiro[4.4]nonan-2-yl)methyl)-1H-benzo[d]imidazol-2(3H)-one]: more than 7.00.
`CC(O)c1ccccc1-c1cc(F)ccc1Oc1cncnc1N1CCC2(CCN(Cc3ccc4[nH]c(=O)[nH]c4c3)C2)C1` (single isomer, unassigned) [Example 60D, 5-((7-(5-((5-fluoro-2′-(1-hydroxyethyl)-[1,1′-biphenyl]-2-yl)oxy)pyrimidin-4-yl)-2,7-diazaspiro[4.4]nonan-2-yl)methyl)-1H-benzo[d]imidazol-2(3H)-one]: the negative logarithm of the EC50 (pEC50) was more than 7.00.

What is called pIC50 is −log10 of the IC50, conventionally taken in molar units. A high value points to a small IC50. As usually defined, the pEC50 is the EC50 on a negative log10 scale, so that one unit is a factor of ten. Read a low pEC50 as a high EC50.

For the origin of these results see patent US12312359B2 (Vitae Pharmaceuticals, LLC, priority 2016, dated 2025).
